# Measured values as given in patent US3939277A, “Insecticidal biodegradable analogues of DDT” (priority 1973, dated 1976).
# What was measured:
# insects = details: background statement, cited from earlier work; for insecticidal activity (in words): compared with DDT towards other species of insects; for insecticidal activity (in words), general: toward certain species of insects
# [1] = test system: female house flies, Musca domestica, susceptible (SNAIDM); experiment: Topical application to female house flies, susceptible (SNAIDM) strain; details: read-out: topical LD50 female housefly, Susceptible
# Procedure: (§1) Compositions of the present invention were tested for insecticidal activities determined by standard methods, and compared with the activities of DDT and other symmetrical analogues of DDT, e.g. methoxychlor. In these tests, female house flies, Musca domestica, under CO2 anesthesia, were treated with topical application of 1 ul drops of w/v solutions of the insecticides in acetone. Three replicates of 20 flies 2-4 days old were treated on the pronotum at each dosage, and at least 5 dosages were used to establish each dosage versus mortality curve. Mortalities were determined by holding the flies at 72° F. (22° C.) with 40% sucrose solution as food. Topical applications were made to both susceptible (SNAIDM) and DDT-resistant (Rsp) strains in exactly the same manner. The results of these evaluations are reported in Table II as LD50 values in ug. of toxicant per gram of insect using the average weight of the house fly as 20 mg. Evaluations of the toxicity of the same compositions to the larvae of the mosquitoes Culex pipiens quinquefasciatus and Anopheles albimanus were made as described by WHO (VBC/1968) and the results are also shown in Table II.
# [2] = test system: larvae of the mosquito Anopheles albimanus; experiment: Toxicity to mosquito larvae as described by WHO (VBC/1968), Anopheles albimanus; type: in vivo
# [3] = test system: female house flies, Musca domestica, DDT-resistant (Rsp); experiment: Topical application to female house flies, DDT-resistant (Rsp) strain; details: read-out: topical LD50 female housefly, DDT-resistant
# Procedure: as §1
# [4] = test system: larvae of the mosquito Culex pipiens quinquefasciatus; experiment: Toxicity to mosquito larvae as described by WHO (VBC/1968), Culex pipiens quinquefasciatus; type: in vivo
# [5] = test system: multifunction oxidase (MFO) enzymes; details: background statement; cited from earlier work
# [6] = background statement; cited from earlier work
SMILES,insecticidal activity (in words) (insects),"insecticidal activity (in words), general (insects)",LD50 [1],LC50 [2],LD50 [3],LC50 [4],susceptibility to attack / detoxication by MFO enzymes [5],lipid solubility [6],water solubility [6]
"Cc1ccc(C(c2ccc(C)cc2)C(Cl)(Cl)Cl)cc1 [methylchor, 1,1,1-trichloro-2,2-bis (p methylphenyl)ethane]",considerably less insecticidal activity than DDT towards other species of insects,satisfactory insecticidal activity toward certain species of insects,,,,,,,
CCc1ccc(C(c2ccc(C)cc2)C(Cl)(Cl)Cl)cc1 (stereo not drawn) [Example VI],,,11 mg/kg,0.23 µg/mL,28 mg/kg,0.08 µg/mL,,,
"COc1ccc(C(c2ccc(SC)cc2)C(Cl)(Cl)Cl)cc1 (stereo not drawn) [Example I, 2-(p-methoxyphenyl)-2-(p-methylthiophenyl)-1,1,1-trichloroethane]",,,23.5 mg/kg,0.044 µg/mL,80 mg/kg,0.11 µg/mL,,,
CCOc1ccc(C(c2ccc(C)cc2)C(Cl)(Cl)Cl)cc1 (stereo not drawn) [Example IV],,,9 mg/kg,0.11 µg/mL,27 mg/kg,0.13 µg/mL,,,
"Clc1ccc(C(c2ccc(Cl)cc2)C(Cl)(Cl)Cl)cc1 [DDT, 1,1,1-trichloro-2,2-bis(p-chlorophenyl)ethane, reference compound]",,,14 mg/kg,0.016 µg/mL,170 mg/kg,0.07 µg/mL,highly resistant to detoxication by MFO enzymes,high lipid solubility,very low water solubility
CCCOc1ccc(C(c2ccc(C)cc2)C(Cl)(Cl)Cl)cc1 (stereo not drawn) [Example V],,,20 mg/kg,0.2 µg/mL,55 mg/kg,0.04 µg/mL,,,
COc1ccc(C(c2ccc(C)cc2)C(Cl)(Cl)Cl)cc1 (stereo not drawn) [Example III],,,23.5 mg/kg,0.12 µg/mL,62.5 mg/kg,0.085 µg/mL,,,
"CSc1ccc(C(c2ccc(SC)cc2)C(Cl)(Cl)Cl)cc1 [methiochlor, 1,1,1-trichloro-2,2-bis-(pmethiophenyl)ethane]",considerably less insecticidal activity than DDT towards other species of insects,satisfactory insecticidal activity toward certain species of insects,,,,,readily attacked by MFO enzymes,,
"Clc1ccc(C(c2ccc(Cl)cc2)C(Cl)Cl)cc1 [DDD, 1,1-dichloro 2,2-bis-(p-chlorophenyl) ethane]",,,,,,,highly resistant to detoxication by MFO enzymes,,
"COc1ccc(C(c2ccc(OC)cc2)C(Cl)(Cl)Cl)cc1 [Methoxychlor, 1,1,1-trichloro-2,2-bis-(pmethoxyphenyl)ethane, reference compound]",considerably less insecticidal activity than DDT towards other species of insects,satisfactory insecticidal activity toward certain species of insects,45 mg/kg,0.18 µg/mL,48 mg/kg,0.067 µg/mL,readily attacked by MFO enzymes,,
CCOc1ccc(C(c2ccc(SC)cc2)C(Cl)(Cl)Cl)cc1 (stereo not drawn) [Example II],,,32 mg/kg,0.054 µg/mL,85 mg/kg,0.07 µg/mL,,,
"ClC(Cl)=C(c1ccc(Cl)cc1)c1ccc(Cl)cc1 [DDE, 1,1-dichloro-2,2-bis-(p-chloro-phyenyl)ethylene]",,,,,,,highly resistant to detoxication by MFO enzymes,,
